Results reported in US8987276B2, “Substituted triazolyl piperazine and triazolyl piperidine derivatives as gamma secretase modulators” (Janssen Pharmaceuticals, Inc., priority 2011, dated 2015).
Where a name gives a salt, the structure may show the parent alone.

Experiments:
[1] = system: Aβtotal; assay: In vivo efficacy: brain soluble Aβtotal in non-transgenic animals (ELISA); design: species or system mouse; conditions: dose 30 mg/kg oral dosing; brain soluble fraction, 4 h after dose; untreated animals (Ctrl) set at 100
Text: (§1) To determine whether acute administration of an Aβ42 lowering agent would reduce Aβ42 levels in vivo, non-transgenic rodents, e.g. mice or rats were used. Animals treated with the Aβ42 lowering agent were examined and compared to those untreated or treated with vehicle and brain levels of soluble Aβ42 and total Aβ were quantitated by standard techniques, for example, using ELISA. Treatment periods varied from hours (h) to days and were adjusted based on the results of the Aβ42 lowering once a time course of onset of effect could be established.
(§2) A typical protocol for measuring Aβ42 lowering in vivo is shown but it is only one of many variations that could be used to optimize the levels of detectable A3. For example, Aβ42 lowering compounds were formulated in 20% of Captisol® (a sulfobutyl ether of β-cyclodextrin) in water or 20% hydroxypropyl 0 cyclodextrin. The Aβ42 lowering agents were administered as a single oral dose or by any acceptable route of administration to overnight fasted animals. After 4 h, the animals were sacrificed and Aβ42 levels were analysed.
(§3) Blood was collected by decapitation and exsanguinations in EDTA-treated collection tubes. […] The left hemisphere was stored at −18° C. for quantitative analysis of test compound levels. […]
(§4) Mouse brains from non-transgenic animals were resuspended in 8 volumes of 0.4% DEA (diethylamine)/50 mM NaCl containing protease inhibitors (Roche-11873580001 or 04693159001) per gram of tissue, e.g. for 0.158 g brain, add 1.264 ml of 0.4% DEA. […] Nine parts of supernatant were neutralized with 1 part 0.5 M Tris-HCl pH 6.8 and used to quantify Aβtotal and Aβ42.
(§5) To quantify the amount of Aβtotal and Aβ42 in the soluble fraction of the brain homogenates, Enzyme-Linked-Immunosorbent-Assays were used. […] Following this incubation and subsequent wash steps the ELISA for Aβ42 quantification was finished by addition of Quanta Blu fluorogenic peroxidase substrate according to the manufacturer's instructions (Pierce Corp., Rockford, Il). A reading was performed after 10 to 15 min (excitation 320 nm/emission 420 nm). […]

[2] = system: Aβ42; assay: In vivo efficacy: brain soluble Aβ42 lowering in non-transgenic animals (ELISA); design: species or system mouse; conditions: dose 30 mg/kg oral dosing; brain soluble fraction, 4 h after dose; untreated animals (Ctrl) set at 100
Text: as §1, §2, §3, §4, §5

[3] = system: Aβtotal; assay: Screening for γ-secretase-modulating activity: Aβtotal in supernatant of SKNBE2 cells carrying APP 695-wild type (Alphalisa); type: cell-based; conditions: Homo sapiens, overnight incubation, cell supernatant
Experimental: (§6) Screening was carried out using SKNBE2 cells carrying the APP 695-wild type, grown in Dulbecco's Modified Eagle's Medium/Nutrient mixture F-12 (DMEM/NUT-mix F-12) (HAM) provided by Invitrogen (cat no. 10371-029) containing 5% Serum/Fe supplemented with 1% non-essential amino acids, 1-glutamine 2 mM, Hepes 15 mM, penicillin 50 U/ml (units/ml) en streptomycin 50 µg/ml. Cells were grown to near confluency.
(§7) The screening was performed using a modification of the assay as described in Citron et al (1997) Nature Medicine 3: 67. Briefly, cells were plated in a 384-well plate at 10^4 cells/well in Ultraculture (Lonza, BE12-725F) supplemented with 1% glutamine (Invitrogen, 25030-024), 1% non-essential amino acid (NEAA), penicillin 50 U/ml en streptomycin […] in the presence of test compound at different test concentrations. The cell/compound mixture was incubated overnight at 37° C., 5% CO2. The next day the media were assayed by two sandwich immuno-assays, for Aβ42 and Aβtotal.
(§8) Aβtotal and Aβ42 concentrations were quantified in the cell supernatant using the Aphalisa technology (Perkin Elmer). Alphalisa is a sandwich assay using biotinylated antibody attached to streptavidin coated donorbeads and antibody conjugated to acceptor beads. In the presence of antigen, the beads come into close proximity. The excitation of the donor beads provokes the release of singlet oxygen molecules that trigger a cascade of energy transfer in the acceptor beads, resulting in light emission.
(§9) To quantify the amount of Aβ42 in the cell supernatant, monoclonal antibody specific to the C-terminus of Aβ42 (JRF/cAB42/26) was coupled to the receptor beads and biotinylated antibody specific to the N-terminus of Aβ (JRF/ABN/25) was used to react with the donor beads. T quantify the amount of Aβtotal in the cell supernatant, monoclonal antibody specifc to the N-terminus of Aβ (JRF/AβN/25) was coupled to the receptor beads and biotinylated antibody specific to the mid region of Aβ (biotinylated 4G8) was used to react with the donor beads.
(§10) To obtain the values reported in Table 3, the data are calculated as percentage of the maximum amount of amyloid Beta 42 measured in the absence of the test compound. The sigmoidal dose response curves were analyzed using non-linear regression analysis with percentage of the control plotted against the log concentration of the compound. A 4-parameter equation was used to determine the IC50.

[4] = system: Aβ42; assay: Screening for γ-secretase-modulating activity: Aβ42 in supernatant of SKNBE2 cells carrying APP 695-wild type (Alphalisa); type: cell-based; conditions: Homo sapiens, overnight incubation, cell supernatant
Experimental: as §6, §7, §8, §9, §10

Row | Structure (SMILES) | melting point [°C] | IC50 [3] [µM] | IC50 [4] [µM] | Aβtotal (% vs Ctrl)_Mean [1] [% vs Ctrl] | Aβ42 (% vs Ctrl)_Mean [2] [% vs Ctrl]
1 | COc1ccc(N2CCN(c3nc(Nc4ccccc4C)n(C)n3)CC2(C)C)cc1 [Compound 1, 3-[4-(4-methoxyphenyl)-3,3-dimethyl-1-piperazinyl]-1-methyl-N-(2-methylphenyl)-1H-1,2,4-triazol-5-amine] | 156.8 | > 10 | 0.05 | 107 | 50
2 | COc1ccc(N2CCN(c3nc(Nc4ccccc4C(F)(F)F)n(C)n3)CC2(C)C)cc1 [Compound 2, 3-[4-(4-methoxyphenyl)-3,3-dimethyl-1-piperazinyl]-1-methyl-N-[2-(trifluoromethyl)phenyl]-1H-1,2,4-triazol-5-amine] |  | > 10 | 0.09 |  | 
3 | COc1ccc(N2CCN(c3nc(Nc4cccc(OC(F)(F)F)c4)n(C)n3)CC2(C)C)cc1 [Compound 4, 3-[4-(4-methoxyphenyl)-3,3-dimethyl-1-piperazinyl]-1-methyl-N-[3-(trifluoromethoxy)phenyl]-1H-1,2,4-triazol-5-amine.HCl] |  | > 10 | 0.07 |  | 
4 | COc1ccc(N2CCN(c3nc(Nc4cc(F)cc(C(F)(F)F)c4)n(C)n3)CC2(C)C)cc1 [Compound 5, N-[3-fluoro-5-(trifluoromethyl)phenyl]-3-[4-(4-methoxyphenyl)-3,3-dimethyl-1-piperazinyl]-1-methyl-1H-1,2,4-triazol-5-amine.0.8HCl] |  | > 10 | 0.14 |  | 
5 | COc1ccc(N2CCN(c3nc(Nc4ccc(F)cc4C)n(C)n3)CC2(C)C)cc1 [Compound 6, N-(4-fluoro-2-methylphenyl)-3-[4-(4-methoxyphenyl)-3,3-dimethyl-1-piperazinyl]-1-methyl-1H-1,2,4-triazol-5-amine.1.2HCl. 1.5H2O] |  | > 10 | 0.05 | 109 | 45
6 | Cc1cc(OC2CCN(c3nc(Nc4cc(C(F)(F)F)ccc4F)n(C)n3)CC2)ncn1 [Compound 8, N-[2-fluoro-5-(trifluoromethyl)phenyl]-1-methyl-3-[4-[(6-methyl-4-pyrimidinyl)oxy]-1-piperidinyl]-1H-1,2,4-triazol-5-amine] | 158 | > 10 | 0.95 |  | 
7 | Cc1cc(CC2CCN(c3nc(Nc4cc(C(F)(F)F)ccc4F)n(C)n3)CC2)ccn1 [Compound 11, N-[2-fluoro-5-(trifluoromethyl)phenyl]-1-methyl-3-[4-[(2-methyl-4-pyridinyl)methyl]-1-piperidinyl]-1H-1,2,4-triazol-5-amine.HCl.H2O] |  | > 10 | 6.92 |  | 
8 | Cc1cc(OC2CCN(c3nc(Nc4cc(C(F)(F)F)ccc4F)n(C)n3)CC2)ccn1 [Compound 15, N-[2-fluoro-5-(trifluoromethyl)phenyl]-1-methyl-3-[4-[(2-methyl-4-pyridinyl)oxy]-1-piperidinyl]-1H-1,2,4-triazol-5-amine] | 177.4 | > 10 | 0.25 |  | 
9 | COc1ccc(N2CCN(c3nc(-c4ccc(F)cc4)n(C)n3)CC2)cc1 [Compound 16, 1-[5-(4-fluorophenyl)-1-methyl-1H-1,2,4-triazol-3-yl]-4-(4-methoxyphenyl)-piperazine] | 191.6 | > 10 | 4.07 |  | 

Second part, led by results:

Row | melting point [°C] | IC50 [3] [µM] | IC50 [4] [µM] | Structure (SMILES) | Aβtotal (% vs Ctrl)_Mean [1] [% vs Ctrl] | Aβ42 (% vs Ctrl)_Mean [2] [% vs Ctrl]
10 |  | > 10 | 0.05 | COc1ccc(N2CCN(c3nc(Nc4cccc(F)c4C(F)(F)F)n(C)n3)CC2(C)C)cc1 [Compound 3, N-[3-fluoro-2-(trifluoromethyl)phenyl]-3-[4-(4-methoxyphenyl)-3,3-dimethyl-1-piperazinyl]-1-methyl-1H-1,2,4-triazol-5-amine] |  | 
11 |  | > 10 | 0.72 | Cn1nc(N2CCC(Oc3ccncc3)CC2)nc1Nc1cc(C(F)(F)F)ccc1F [Compound 7, N-[2-fluoro-5-(trifluoromethyl)phenyl]-1-methyl-3-[4-(4-pyridinyloxy)-1-piperidinyl]-1H-1,2,4-triazol-5-amine] |  | 
12 | 145.4 | > 10 | 0.56 | COc1ccc(N2CCN(c3nc(Nc4cc(C(F)(F)F)ccc4F)n(C)n3)CC2)cc1 [Compound 9, N-[2-fluoro-5-(trifluoromethyl)phenyl]-3-[4-(4-methoxyphenyl)-1-piperazinyl]-1-methyl-1H-1,2,4-triazol-5-amine] |  | 
13 | 261.8 | > 10 | 4.9 | Cn1nc(N2CCN(c3ccncc3)CC2)nc1Nc1cc(C(F)(F)F)ccc1F [Compound 10, N-[2-fluoro-5-(trifluoromethyl)phenyl]-1-methyl-3-[4-(4-pyridinyl)-1-piperazinyl]-1H-1,2,4-triazol-5-amine] |  | 
14 | 161.4 | > 10 | > 10 | Cn1nc(N2CCN(Cc3ccncc3)CC2)nc1Nc1cc(C(F)(F)F)ccc1F [Compound 12, N-[2-fluoro-5-(trifluoromethyl)phenyl]-1-methyl-3-[4-(4-pyridinylmethyl)-1-piperazinyl]-1H-1,2,4-triazol-5-amine] |  | 
15 |  | > 10 | 0.11 | COc1ccc(N2CCN(c3nc(Nc4cc(C(F)(F)F)ccc4F)n(C)n3)CC2(C)C)cc1 [Compound 14, N-[2-fluoro-5-(trifluoromethyl)phenyl]-3-[4-(4-methoxyphenyl)-3,3-dimethyl-1-piperazinyl]-1-methyl-1H-1,2,4-triazol-5-amine] | 111 | 78
